Here are results for 3 compounds from patent US9686984B2, “Macrocyclic picolinamides as fungicides” (DOW AGROSCIENCES LLC, priority 2014, dated 2017).

Common to all, as to type: in vivo
The subject of test [1] is Blumeria graminis f. sp. hordei. As to the kind of experiment: Barley Powdery Mildew (ERYSGH) disease control. Particulars: 100 ppm, 1 Day Protectant. As to the method:
Technical grades of materials were dissolved in acetone, which were then mixed with nine volumes of water containing 110 ppm Triton X-100. The fungicide solutions were applied onto wheat seedlings using an automated booth sprayer to run-off. All sprayed plants were allowed to air dry prior to further handling. All fungicides were evaluated using the aforementioned method for their activity vs. all target diseases, unless stated otherwise. Wheat leaf blotch and brown rust activity were also evaluated using track spray applications, in which case the fungicides were formulated as EC formulations, containing 0.1% Trycol 5941 in the spray solutions. Wheat plants (variety Yuma) were grown from seed in a greenhouse in 50% mineral soil/50% soil-less Metro mix until the first leaf was fully emerged, with 7-10 seedlings per pot. These plants were inoculated with an aqueous spore suspension of Septoria tritici either prior to or after fungicide treatments. After inoculation the plants were kept in 100% relative humidity (one day in a dark dew chamber followed by two to three days in a lighted dew chamber at 20° C.) to permit spores to germinate and infect the leaf. The plants were then transferred to a greenhouse set at 20° C. for disease to develop. When disease symptoms were fully expressed on the 1st leaves of untreated plants, infection levels were assessed on a scale of 0 to 100 percent disease severity. Percent disease control was calculated using the ratio of disease severity on treated plants relative to untreated plants. Example J: Evaluation of Fungicidal Activity: Barley Powdery Mildew (Blumeria graminis f. sp. hordei; Synonym: Erysiphe graminis f. sp. hordei; Bayer Code […]) Barley seedlings (variety Harrington) were propagated in soil-less Metro mix, with each pot having 8 to 12 plants, and used in the test when first leaf was fully emerged. Test plants were inoculated by dusting with infected stock plants 24 hr after fungicide treatments. After inoculation the plants were kept in a greenhouse set at 20° C. for disease to develop. […]

The next test has as its system Zymoseptoria tritici. As to the kind of experiment: Leaf Blotch of Wheat (SEPTTR) disease control on wheat seedlings. The following applies: for pest or weed control at 121.5 g/ha: Low Volume (121.5 g/H); for pest or weed control at 100 µg/mL: High Volume (100 ppm). In short, it runs like this:
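Compounds in acetone/water (1:9, 110 ppm Triton X-100) sprayed to run-off on Yuma wheat seedlings at first-leaf stage, with Septoria tritici spores inoculated before or after treatment. Plants held at 100% RH (dark then lighted dew chamber, 20° C), then in greenhouse at 20° C; % control from disease severity on 1st leaves versus untreated.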

Another test concerns Glomerella lagenarium. As to the kind of experiment: Cucumber Anthracnose (COLLLA) disease control. The following applies: 100 ppm, 1 Day Protectant. As to the method:
Technical grades of materials were dissolved in acetone, which were then mixed with nine volumes of water containing 110 ppm Triton X-100. The fungicide solutions were applied onto wheat seedlings using an automated booth sprayer to run-off. All sprayed plants were allowed to air dry prior to further handling. All fungicides were evaluated using the aforementioned method for their activity vs. all target diseases, unless stated otherwise. Wheat leaf blotch and brown rust activity were also evaluated using track spray applications, in which case the fungicides were formulated as EC formulations, containing 0.1% Trycol 5941 in the spray solutions. Wheat plants (variety Yuma) were grown from seed in a greenhouse in 50% mineral soil/50% soil-less Metro mix until the first leaf was fully emerged, with 7-10 seedlings per pot. These plants were inoculated with an aqueous spore suspension of Septoria tritici either prior to or after fungicide treatments. After inoculation the plants were kept in 100% relative humidity (one day in a dark dew chamber followed by two to three days in a lighted dew chamber at 20° C.) to permit spores to germinate and infect the leaf. The plants were then transferred to a greenhouse set at 20° C. for disease to develop. When disease symptoms were fully expressed on the 1st leaves of untreated plants, infection levels were assessed on a scale of 0 to 100 percent disease severity. Percent disease control was calculated using the ratio of disease severity on treated plants relative to untreated plants. Example N: Evaluation of Fungicidal Activity: Cucumber Anthracnose (Glomerella lagenarium; Anamorph: Colletotrichum lagenarium; Bayer Code COLLLA) Cucumber seedlings (variety Bush Pickle) were propagated in soil-less Metro mix, with each pot having one plant, and used in the test when 12 to 14 days old. Test plants were inoculated with an aqueous spore suspension of Colletotrichum lagenarium 24 hr after fungicide treatments. […]

The mark [2] stands for this setting: 24 h, 1 Day Protectant, read-out: SEPTTR disease control, 1 DP.
The mark [3] stands for this setting: 72 h, 3 Day Curative, read-out: SEPTTR disease control, 3 DC.

Read-outs that look alike come from different tables or passages of the source. Bounds are passed on as bounds.

Regarding `CCCC[C@H]1OCC[C@H](NC(=O)c2nccc(OC)c2OC(C)=O)C(=O)O[C@@H](C)[C@@H]1Cc1ccccc1` [Compound 2], in test [1], the “ERYSGH disease control, 1DP” value was “B (≦70)”. In addition, the pest or weed control at 121.5 g/ha in the test on Zymoseptoria tritici (setting [2]) and in the test on Zymoseptoria tritici (setting [3]) was over 70% throughout. For the same compound, the “COLLLA disease control, 1DP” value in the test with Glomerella lagenarium is recorded as “A (>70)”.
On to `COc1ccnc(C(=O)N[C@H]2CCO[C@H](Cc3ccccc3)[C@@H](Cc3ccccc3)[C@H](C)OC2=O)c1OC(C)=O` [Compound 3], for which the “ERYSGH disease control, 1DP” value in test [1] is recorded as “B (≦70)”. For the same compound, the pest or weed control at 121.5 g/ha with Zymoseptoria tritici (setting [2]) and in the test with Zymoseptoria tritici (setting [3]) was over 70% in each case. In the test with Glomerella lagenarium, the “COLLLA disease control, 1DP” value is “A (>70)”.
In the case of `CCC[C@H]1OCC[C@H](NC(=O)c2nccc(OC)c2OCOC(C)=O)C(=O)O[C@@H](C)[C@@H]1Cc1ccccc1` [Compound 17], in test [1], the “ERYSGH disease control, 1DP” value is “B (≦70)”. Besides, the pest or weed control at 100 µg/mL in the test on Zymoseptoria tritici (setting [2]) and in the test with Zymoseptoria tritici (setting [3]) was over 70% throughout. The pest or weed control at 121.5 g/ha in the test with Zymoseptoria tritici (setting [2]) and in the test on Zymoseptoria tritici (setting [3]) was over 70% throughout. The “COLLLA disease control, 1DP” value in the test on Glomerella lagenarium was “A (>70)”.
